Key:
[1] = Liver microsomal stability assay; type: in vitro ADME; settings: liver microsomes, pH 7.4
Description: The incubation system (including 0.1 M PH 7.4 phosphate buffer, NADPH generation system, UGT incubation system, 0.5 mg/mL liver microsomal protein and appropriate concentration of drug to be tested) was incubated in a water bath at 37 °C for […]. Each sample was incubated three times in parallel, and an equal volume of pre-chilled acetonitrile was added at preset reaction time points, such as 0, 5, 10, 15, 30 and 60 min. The reaction was terminated by the addition of acetonitrile. The remaining content of the prototype drug in the warm incubation solution was determined by HPLC, HPLC-MC and HPLC-MC/MC.

MKN45 xenograft tumor = MKN45 xenograft tumor model; type: in vivo, BALB/c nude mice; settings: 8 mg/kg/d, ig
Description: (§1) Male BALB/c nude mice (5-week old, 18–20 g) were purchased from Beijing Vital River Laboratory Animal Technology (Beijing Vital River LaboratoryAnimal Technology Co., Ltd., Beijing,China) and allowed to acclimate for 1 week, maintained at constant room temperature and fed a standard rodent chow and water. 1 × 10^7 cells/mL cancer cells grown in logarithmic phase were harvested and resuspended in FBS-free 1640 medium. Then, 100 μL of the cell suspension was subcutaneously injected into the right flank of each mouse. When the tumour volume was reached about 600–800 mm^3, it was removed, minced into small pieces of equal volume (2 × 2 × 2 mm^3), and transplanted subcutaneously into the nude mice. When the tumour volume was reached about 200–400 mm^3, the xenograft tumour-bearing nude mice were randomly allocated to five groups (vehicle-treated, 1D228-2mgd-treated, 1D228-4mgd-treated […] Tepotinib-treated groups, with 6 or 8 mice (The number of mice were determined according to previous experience on xenograft tumor models) per group. Each group was dosed by intragastric administration (ig) for 7–14 days. Tumour volume and body weights were recorded every day after drug treatment. At the end of the observation period, the animals were euthanized by cervical dislocation and the tumour bulks were peeled off conformed to the Guide for the Care and Use of Laboratory Animals as published by the US National Institutes of Health (NIH Publication No. 85-23, revised 1996) and approved by the Institutional Ethics Review Board of Binzhou Medical University. There was no blinding was done during the animal experiment. No animals were excluded from the analysis.

MHCC97H xenograft tumor = MHCC97H xenograft tumor model; type: in vivo, BALB/c nude mice; settings: Tepotinib group (dose not given), ig, calculated through tumor weight
Description: as §1

284 kinases = test system: 284 kinases; parameters: method as in PMID 25736998; settings: 100 nM; 284 kinases tested; cited from earlier work
MKN45 = test: CCK8 antiproliferative assay; type: cell-based; settings: Homo sapiens, MKN-45, 72 h, read-out: IC50, cell proliferation
Description: (§2) For cytotoxicity assay, the cells grown in the logarithmic phase were seeded into 96-well plates (7 × 10^3 cells/well) for 24 h, then exposed to different concentrations (10, 5, 1, 0.1, 0.01 and 0.001 μM) of the test compounds for 72 h. After attached cells were incubated with CCK8 (Sigma, USA) for another 1–4 h. Then the absorbance at 450 nm was measured using a multifunction microplate reader (Molecular Devices, Flex Station 3), and each experiment was performed at least in triplicate.

HS746T = test: CCK8 antiproliferative assay; type: cell-based; settings: Homo sapiens, Hs746T, 72 h, read-out: IC50, cell proliferation
Description: as §2

ASPC1 = test: CCK8 antiproliferative assay; type: cell-based; settings: Homo sapiens, ASPC1, 72 h, read-out: IC50, cell proliferation
Description: as §2

Structure (SMILES): CN1CCC(COc2cnc(-c3cccc(Cn4nc(-c5cccc(C#N)c5)ccc4=O)c3)nc2)CC1 [Tepotinib, reference compound]
- half-life ([1]; Sprague-Dawley, rat, SD rats liver microsome): 0.301 h
- half-life ([1]; cynomolgus monkey, Macaca fascicularis liver microsome): 22.5 h
- half-life ([1]; dog, Beagle liver microsome): 1.04 h
- half-life ([1]; Human liver microsome): 30.5 h
- half-life ([1]; mouse, CD - 1 mice liver microsome): 0.252 h
- TGI (MKN45 xenograft tumor): 67.61%
- Tumor growth inhibition (TGI) (MHCC97H xenograft tumor): 63.9%
- Inhibition of kinases other than c-Met (284 kinases): not able to inhibit any other kinase
- IC50 (MKN45): 0.00165 µM
- IC50 (HS746T): 3.6 µM
- IC50 (ASPC1): 3.78 µM

Reference: PMC10636171 (Cell Death & Disease, 2023)
